Experiment: Relative potency was evaluated for its ability to mobilize intracellular calcium in MDA MB231 cells.
Format: functional, cell-based
Conditions: Homo sapiens, MDA-MB-231

Point of comparison: `CCCCCC/C=C\CCCCCCCC(=O)Nc1ccc(OP(=O)(O)O)cc1`, EC50 1.83 µM. Against it:
- CCCCCCCC/C=C\CCCCCCCC(=O)OCC(O)COP(=O)(O)O (single isomer, unassigned) [LYSOPHOSPHATIDIC ACID] — 370-fold lower, 0.005 µM
- CCCCCCCCCCCCCCCC(=O)Oc1cccc(OP(=O)(O)O)c1 — 5.9-fold lower, 0.31 µM
- CCCCCC/C=C\CCCCCCCC(=O)Nc1cccc(OP(=O)(O)O)c1 — 4-fold lower, 0.46 µM
- CCCCCCCCCCCCCCCC(=O)Nc1cccc(OP(=O)(O)O)c1 — 4-fold lower, 0.46 µM

Experiment: Relative potency was evaluated for its ability to mobilize intracellular calcium in MDA MB231 cells.*did not reach a maximal response at the highest concentration used
Format: functional, cell-based
Conditions: Homo sapiens, MDA-MB-231

Point of comparison: `CCCCCCCCCCCCCC(=O)Oc1ccc(C(=O)c2ccc(OP(=O)(O)O)cc2)cc1`, EC50 1.99 µM. Against it:
- CCCCCCCC(=O)Oc1ccc(C(=O)c2ccc(OP(=O)(O)O)cc2)cc1 — higher, > 500 µM
- CCCCCCCCCC(=O)Oc1ccc(C(=O)c2ccc(OP(=O)(O)O)cc2)cc1 — higher, > 500 µM
- CCCCCCCC/C=C\CCCCCCCC(=O)NCCOP(=O)(O)O — 660-fold lower, 0.003 µM
- CCCCCC/C=C\CCCCCCCC(=O)Oc1cccc(OP(=O)(O)O)c1 — 2.3-fold lower, 0.85 µM
- CCCCCCCCCCCC(=O)Oc1ccc(C(=O)c2ccc(OP(=O)(O)O)cc2)cc1 — 2.4-fold higher, 4.71 µM
- CCCCCCCCCCCCCCCC(=O)Nc1ccc(OP(=O)(O)O)cc1 — within 1.5-fold, 1.56 µM

Source: ChEMBL document CHEMBL1132615, “Structure--activity relationships of lysophosphatidic acid: conformationally restricted backbone mimetics” (J Med Chem, 1999)
